For data set [1], the system named is HaCat: human keratinocyte cells. More on the design: method as in PMID 24046217, PMID 25069157. The conditions noted are these: ±SD; HaCaT human keratinocyte cells (non-tumorigenic); ref [3], [5], [10]; read-out: IC50 [µM] Cytotoxicity HaCaT; cited from earlier work.
The next data set concerns the target T1, human topoisomerase I (Homo sapiens, UniProt P11387).
T1 construct: purchased Inspiralis Limited, UK (assay run by the vendor as a service)
T1 sequence (P11387 1-765): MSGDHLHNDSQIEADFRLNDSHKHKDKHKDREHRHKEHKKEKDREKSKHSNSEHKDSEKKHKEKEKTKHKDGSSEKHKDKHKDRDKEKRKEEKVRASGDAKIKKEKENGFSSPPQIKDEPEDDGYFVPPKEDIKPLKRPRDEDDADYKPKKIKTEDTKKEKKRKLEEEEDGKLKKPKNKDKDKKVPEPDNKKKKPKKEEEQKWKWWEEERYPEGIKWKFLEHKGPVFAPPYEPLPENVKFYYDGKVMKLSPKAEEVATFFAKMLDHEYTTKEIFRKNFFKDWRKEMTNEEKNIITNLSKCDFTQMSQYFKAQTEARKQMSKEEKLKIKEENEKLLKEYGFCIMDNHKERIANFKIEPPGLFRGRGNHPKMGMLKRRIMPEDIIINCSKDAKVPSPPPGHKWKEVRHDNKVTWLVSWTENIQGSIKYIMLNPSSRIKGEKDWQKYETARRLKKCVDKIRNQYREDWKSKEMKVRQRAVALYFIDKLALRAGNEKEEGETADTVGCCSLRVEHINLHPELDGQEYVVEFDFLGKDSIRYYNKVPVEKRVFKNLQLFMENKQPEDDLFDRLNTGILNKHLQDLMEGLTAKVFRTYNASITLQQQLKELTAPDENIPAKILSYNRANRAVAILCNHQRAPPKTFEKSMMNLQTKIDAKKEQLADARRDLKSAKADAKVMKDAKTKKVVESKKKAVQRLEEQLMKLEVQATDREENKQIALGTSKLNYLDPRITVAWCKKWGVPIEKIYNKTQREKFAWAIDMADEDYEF
The data set is described as follows: DNA relaxation assay on human topoisomerase I (gel based, supercoiled pBR322). The data set is classed as biochemical. The conditions noted are these: ±SD, n = 2; relaxation of supercoiled pBR322, 37 °C, 30 min, 10 % DMSO; read-out: IC50 [µM] Topo I.

The subject of data set [2] is 5637: human urinary bladder carcinoma cells. More on the design: method as in PMID 24046217, PMID 25069157. The conditions noted are these: ±SD, ref [3], [5], [10], read-out: IC50 [µM] Cytotoxicity 5637; cited from earlier work.
The test system of data set [3] is LN-18: human glioblastoma cells. More on the design: method as in PMID 24046217, PMID 25069157. The settings on record: ±SD, ref [3], [5], [10], read-out: IC50 [µM] Cytotoxicity LN-18; cited from earlier work.
Data set [4] concerns MCF-7: human breast cancer cells. Set-up: method as in PMID 24046217, PMID 25069157. The settings on record: ±SD, ref [3], [5], [10], read-out: IC50 [µM] Cytotoxicity MCF-7; cited from earlier work.

Method for human topoisomerase I: The relaxation assay on human topoisomerase I was carried out by Inspiralis Limited®, UK, according to their SOP (standard operating procedure). All compounds were dissolved in DMSO and then diluted to yield concentration ranges from 1 nM to 1 mM. […] 1 U (the amount of enzyme required to completely relax the substrate) was incubated with 0.5 µg supercoiled plasmid DNA (pBR322) at 37 °C for 30 min in a 30 µL reaction mixture of 20 mM Tris HCL (pH 7.5), 200 mM NaCl, 0.25 mM EDTA and 5 % glycerol. The reaction was stopped by adding 30 µL chloroform/iso-amyl alcohol (26:1) and 20 µL Stop Dye (40 % sucrose, 100 mM Tris HCl (pH 7.5), 10 mM EDTA, 0.5 μg/mL bromophenol blue) before being loaded on a 0.8 % TAE gel run for 2 h at 80 V. Then bands were visualized by ethidium staining for 10 min and analyzed by documentation equipment (Syngene, Cambridge, UK), gel scanning software (Syngene, GeneTools) and SigmaPlot version 12.3. All assays were carried out in a final DMSO concentration of 10 % and were performed twice.

In general, IC50 refers to the point on the concentration scale where inhibition reaches its midpoint. Turning to `CC=C(C)C(=O)OC1CC(C)(C)CC2C3=CCC4C5(C)CCC(OC6OC(C(=O)O)C(OC7OC(CO)C(O)C7O)C(OC7OCC(O)C(O)C7O)C6OC6OC(CO)C(O)C(O)C6O)C(C)(C)C5CCC4(C)C3(C)C(O)C(O)C12CO` (centres unmarked) [Compound 1, pittangretoside A], the IC50 is 15.2 ± 0.9 µM in data set [1]; 7.5 ± 0.6 µM at human topoisomerase I; 4.1 ± 1 µM in data set [2]; 7.6 ± 1.7 µM in data set [3]; 25.7 ± 1.9 µM in data set [4].
For `CC=C(C)C(=O)OC1CC(C)(C)CC2C3=CCC4C5(C)CCC(OC6OC(C(=O)O)C(O)C(O)C6OC6OC(CO)C(O)C(O)C6OC6OC(C)C(O)C(O)C6O)C(C)(C)C5CCC4(C)C3(C)C(O)C(O)C12CO` (centres unmarked) [Compound 2, pittangretoside D], the IC50 in data set [1] is > 118 µM; at human topoisomerase I, 4.8 ± 2.4 µM; in data set [2] it was 17.9 ± 1 µM; in data set [3] it was 35.7 ± 5.2 µM; in data set [4] it was 36.6 ± 5.7 µM.
Take `CCC(C)C(=O)OCC12C(O)CC(C)(C)CC1C1=CCC3C4(C)CCC(OC5OC(C(=O)O)C(OC6OC(CO)C(O)C6O)C(OC6OCC(O)C(O)C6O)C5OC5OC(CO)C(O)C(O)C5O)C(C)(C)C4CCC3(C)C1(C)C(O)C2O` (centres unmarked) [Compound 3, pittangretoside F]: the IC50 on human topoisomerase I is 16.8 ± 0.4 µM; in data set [2], > 106 µM.
For `CC=C(C)C(=O)OC1C(OC(C)=O)C2(CO)C(CC1(C)C)C1=CCC3C4(C)CCC(OC5OC(C(=O)O)C(OC6OC(CO)C(O)C6O)C(OC6OCC(O)C(O)C6O)C5OC5OC(CO)C(O)C(O)C5O)C(C)(C)C4CCC3(C)C1(C)C(O)C2O` (centres unmarked) [Compound 4, IIIA3], the IC50 in data set [1] was 15.9 ± 1.3 µM; at human topoisomerase I it was 8.6 ± 0.1 µM; in data set [3] it was 13.4 ± 0.8 µM; in data set [4], 19.8 ± 2.2 µM.
Take `CC=C(C)C(=O)OC1C(OC(C)=O)C(C)(C)CC2C3=CCC4C5(C)CCC(OC6OC(C(=O)O)C(OC7OC(CO)C(O)C7O)C(OC7OCC(O)C(O)C7O)C6OC6OC(CO)C(O)C(O)C6O)C(C)(C)C5CCC4(C)C3(C)C(O)C(O)C21CO` (centres unmarked) [Compound 5, pittangretoside N]: the IC50 in data set [1] was 34.1 ± 2.8 µM; on human topoisomerase I, 6.5 ± 0.6 µM; in data set [3], 10.4 ± 2.7 µM; in data set [4], 28.7 ± 3.6 µM.
Consider `CCC(C)(OC(C)=O)C(=O)OC1C(OC(C)=O)C(C)(C)CC2C3=CCC4C5(C)CCC(OC6OC(C(=O)O)C(OC7OC(CO)C(O)C7O)C(OC7OCC(O)C(O)C7O)C6OC6OC(CO)C(O)C(O)C6O)C(C)(C)C5CCC4(C)C3(C)C(O)C(O)C21CO` (centres unmarked) [Compound 6, pittangretoside O], for which the concentration for half-maximal inhibition (IC50) in data set [1] was 19.2 ± 2.1 µM; on human topoisomerase I, 7.5 ± 1.6 µM; in data set [3] it was 4.4 ± 0.7 µM; in data set [4] it was 22.9 ± 1.8 µM.
As for `CCC(C)C(=O)OC1C(OC(C)=O)C2(CO)C(CC1(C)C)C1=CCC3C4(C)CCC(OC5OC(C(=O)O)C(OC6OC(CO)C(O)C6O)C(OC6OCC(O)C(O)C6O)C5OC5OC(CO)C(O)C(O)C5O)C(C)(C)C4CCC3(C)C1(C)C(O)C2O` (centres unmarked) [Compound 7, pittangretoside P], the IC50 in data set [1] was 11.2 ± 0.5 µM; on human topoisomerase I it was 4.2 ± 0.2 µM; in data set [3] it was 7 ± 0.9 µM; in data set [4], 28.7 ± 3.2 µM.
Take `CCC(C)C(=O)OC1CC(C)(C)CC2C3=CCC4C5(C)CCC(OC6OC(C(=O)O)C(OC7OC(CO)C(O)C7O)C(OC7OCC(O)C(O)C7O)C6OC6OC(CO)C(O)C(O)C6O)C(C)(C)C5CCC4(C)C3(C)C(O)C(O)C12CO` (centres unmarked) [Compound 8]: the IC50 at human topoisomerase I was 2.8 ± 1.1 µM; in data set [3], 3.9 ± 0.1 µM.
For the compound `CC=C(C)C(=O)OC1C(OC(=O)C(C)=CC)C2(CO)C(CC1(C)C)C1=CCC3C4(C)CCC(OC5OC(C(=O)O)C(OC6OC(CO)C(O)C6O)C(OC6OCC(O)C(O)C6O)C5OC5OC(CO)C(O)C(O)C5O)C(C)(C)C4CCC3(C)C1(C)C(O)C2O` (centres unmarked) [Compound 9, IIIC4], the IC50 was 2.2 ± 0.5 µM in data set [1], 46.5 ± 11.5 µM at human topoisomerase I, 4.6 ± 0.5 µM in data set [3] and 8.9 ± 0.8 µM in data set [4].
As for `CC=C(C)C(=O)OC1C(OC(=O)C(C)=CC)C2(CO)C(O)CC3(C)C(=CCC4C5(C)CCC(OC6OC(C(=O)O)C(OC7OC(CO)C(O)C7O)C(OC7OCC(O)C(O)C7O)C6OC6OC(CO)C(O)C(O)C6O)C(C)(C)C5CCC43C)C2CC1(C)C` (centres unmarked) [Compound 10, pittangretoside T], on human topoisomerase I, the IC50 was found to be 5 ± 3.3 µM.
